SMILES strings stand for the structures. Where a SMILES comes first, the peptide text is derived from it.

Common to all, as to assay: AMC release by intact cells, fluorescence
What all share (type): cell-based
What all share (conditions): 20 uM; 50 mM phosphate, 5 mM EDTA, 100 mM NaCl, 37 C, 3 h

One assay has as its target DPP4 (Porphyromonas gingivalis, UniProt B2RKU3).
The target of another assay is T1, DPP5 (Porphyromonas gingivalis, UniProt B2RIT0).
T1 sequence (B2RIT0 25-684): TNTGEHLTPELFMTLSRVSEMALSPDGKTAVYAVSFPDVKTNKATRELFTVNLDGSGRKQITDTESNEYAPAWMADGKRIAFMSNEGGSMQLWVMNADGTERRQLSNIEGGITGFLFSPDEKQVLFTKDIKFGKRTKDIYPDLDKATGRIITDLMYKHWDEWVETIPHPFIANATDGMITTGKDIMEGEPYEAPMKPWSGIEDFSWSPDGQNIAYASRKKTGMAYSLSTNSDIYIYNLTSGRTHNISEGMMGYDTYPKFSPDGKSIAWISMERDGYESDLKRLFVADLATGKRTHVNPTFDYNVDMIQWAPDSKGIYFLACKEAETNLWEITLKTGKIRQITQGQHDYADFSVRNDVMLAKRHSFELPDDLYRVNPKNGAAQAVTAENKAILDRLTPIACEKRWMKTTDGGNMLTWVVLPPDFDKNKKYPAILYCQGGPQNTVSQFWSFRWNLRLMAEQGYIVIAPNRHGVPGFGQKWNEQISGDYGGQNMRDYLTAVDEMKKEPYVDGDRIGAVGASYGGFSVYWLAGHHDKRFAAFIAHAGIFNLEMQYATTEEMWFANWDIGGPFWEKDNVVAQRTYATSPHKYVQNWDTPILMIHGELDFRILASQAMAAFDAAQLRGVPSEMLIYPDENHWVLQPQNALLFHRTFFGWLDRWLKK

In the next assay the target is T2, DPP11 (Porphyromonas gingivalis, UniProt B2RID1).
T2 sequence (B2RID1 22-720): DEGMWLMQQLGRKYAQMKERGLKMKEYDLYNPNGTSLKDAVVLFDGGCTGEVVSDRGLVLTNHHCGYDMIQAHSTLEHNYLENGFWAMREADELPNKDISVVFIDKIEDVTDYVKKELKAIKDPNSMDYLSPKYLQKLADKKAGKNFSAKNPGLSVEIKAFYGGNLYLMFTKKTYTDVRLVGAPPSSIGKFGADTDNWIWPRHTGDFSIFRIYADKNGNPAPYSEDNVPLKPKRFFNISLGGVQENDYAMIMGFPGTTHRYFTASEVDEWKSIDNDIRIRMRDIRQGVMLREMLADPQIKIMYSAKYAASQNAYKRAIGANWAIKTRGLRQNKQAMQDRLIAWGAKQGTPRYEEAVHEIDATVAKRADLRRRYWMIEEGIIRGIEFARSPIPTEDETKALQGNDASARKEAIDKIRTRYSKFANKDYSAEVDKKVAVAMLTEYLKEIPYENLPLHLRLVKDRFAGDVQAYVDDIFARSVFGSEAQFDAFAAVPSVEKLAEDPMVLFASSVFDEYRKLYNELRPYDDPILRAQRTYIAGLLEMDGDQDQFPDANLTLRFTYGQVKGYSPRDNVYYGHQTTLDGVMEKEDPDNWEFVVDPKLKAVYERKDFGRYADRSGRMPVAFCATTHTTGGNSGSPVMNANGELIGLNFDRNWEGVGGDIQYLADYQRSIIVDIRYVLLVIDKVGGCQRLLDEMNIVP

As to `Cc1cc(=O)oc2cc(NC(=O)[C@@H]3CCCN3C(=O)CN)ccc12` [Gly-Pro-MCA] (HELM PEPTIDE1{G.P.[Cc1cc(=O)oc2cc(N[*:1])ccc12]}$$$$V2.0), the “AMC release by intact cells, fluorescence” value (shortened to “AMC release by intact cells”) at DPP4 is “Gly-Pro-MCA (substrate of DPP4)”.

On to `Cc1cc(=O)oc2cc(NC(=O)[C@H](C)NC(=O)[C@@H](N)CCCCN)ccc12` [Lys-Ala-MCA] (HELM PEPTIDE1{K.A.[Cc1cc(=O)oc2cc(N[*:1])ccc12]}$$$$V2.0), for which the “AMC release by intact cells” value on DPP5 was “Lys-Ala-MCA (substrate of DPP5)”.

For `Cc1cc(=O)oc2cc(NC(=O)[C@H](CC(=O)O)NC(=O)[C@@H](N)CC(C)C)ccc12` [Leu-Asp-MCA] (HELM PEPTIDE1{L.D.[Cc1cc(=O)oc2cc(N[*:1])ccc12]}$$$$V2.0), the “AMC release by intact cells” value on DPP11 is on record as “Leu-Asp-MCA (substrate of DPP11)”.

The values are drawn from article PMC11225630 (Journal of Oral Microbiology, 2024).
